Reference: publication PMC6364417, “Kinase inhibitor library screening identifies synergistic drug combinations effective in sensitive and resistant melanoma cells” (Journal of Experimental & Clinical Cancer Research : CR, 2019)

How the values were obtained:
Assay in all cases: Kinase inhibitor library screening, PrestoBlue cell viability, 1 or 10 μM, 72 h
[1] = tested on: 501Mel-GP cells (Dabrafenib-resistant); settings: 501Mel GP
[2] = tested on: IGR37-GP cells (Dabrafenib-resistant); settings: IGR37 GP
[3] = tested on: 501Mel-XP cells (Vemurafenib-resistant); settings: 501Mel XP
[4] = tested on: A375-XP cells (Vemurafenib-resistant); settings: A375 XP
[5] = tested on: A375 cells (parental); settings: A375 Parental
[6] = tested on: A375-GP cells (Dabrafenib-resistant); settings: A375 GP
[7] = tested on: 501Mel cells (parental); settings: 501Mel Parental
How it was run: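 Parental cells and Vemurafenib-resistant (XP) or Dabrafenib-resistant (GP) derivatives were treated with library kinase inhibitors at 1 and 10 μM for 72 h. Viability measured by PrestoBlue and expressed as % of untreated cells, at least in duplicate.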

[8] = tested on: IGR37 cells (parental); settings: IGR37 Parental
[9] = tested on: IGR37-XP cells (Vemurafenib-resistant); settings: IGR37 XP

`C#Cc1cccc(Nc2ncnc3cc(OCCOC)c(OCCO)cc23)c1` [Desmethyl Erlotinib (CP-473420)] was tested, and the “cell viability, 501Mel GP, 1μΜ” value ([1]; 1μΜ, 72 h, in %) was 107.4, the “cell viability, 501Mel GP, 10μΜ” value ([1]; 10μΜ, 72 h, in %) was 74.9 and the cell viability, IGR37 GP, 10μΜ ([2]; 10μΜ, 72 h) was 73.5%. For the same compound, the “cell viability, IGR37 GP, 1μΜ” value ([2]; 1μΜ, 72 h, in %) was 85.7, the “cell viability, 501Mel XP, 1μΜ” value ([3]; 1μΜ, 72 h, in %) was 100.0 and the “cell viability, 501Mel XP, 10μΜ” value ([3]; 10μΜ, 72 h, in %) was 41.7. For the same compound, the “cell viability, A375 XP, 1μΜ” value ([4]; 1μΜ, 72 h, in %) was 100.2, the “cell viability, A375 XP, 10μΜ” value ([4]; 10μΜ, 72 h, in %) was 81.3 and the “cell viability, A375 Parental, 1μΜ” value ([5]; 1μΜ, 72 h, in %) was 104.3. For the same compound, the “cell viability, A375 Parental, 10μΜ” value ([5]; 10μΜ, 72 h, in %) was 78.2, the “cell viability, A375 GP, 10μΜ” value ([6]; 10μΜ, 72 h, in %) was 65.7 and the “cell viability, 501Mel Parental, 10μΜ” value ([7]; 10μΜ, 72 h, in %) was 82.4. The “cell viability, IGR37 Parental, 1μΜ” value ([8]; 1μΜ, 72 h, in %) was 99.9, the “cell viability, IGR37 Parental, 10μΜ” value ([8]; 10μΜ, 72 h, in %) was 92.4 and the cell viability, IGR37 XP, 10μΜ ([9]; 10μΜ, 72 h) was 49.7%. For the same compound, the “cell viability, IGR37 XP, 1μΜ” value ([9]; 1μΜ, 72 h, in %) was 80.3.
For `CCc1cnn2c(NCc3ccc[n+]([O-])c3)cc(N3CCCC[C@H]3CCO)nc12` [Dinaciclib (SCH727965)], the “cell viability (kinase inhibitor library screening)” value ([1]; 1μΜ, 72 h) was 0.636%, the “cell viability (kinase inhibitor library screening)” value ([1]; 10μΜ, 72 h) was 0.422% and the “cell viability (kinase inhibitor library screening)” value ([2]; 1μΜ, 72 h) was 4.4%. For the same compound, the “cell viability (kinase inhibitor library screening)” value ([2]; 10μΜ, 72 h) was 2.3%, the “cell viability (kinase inhibitor library screening)” value ([3]; 1μΜ, 72 h) was 0.85% and the “cell viability (kinase inhibitor library screening)” value ([3]; 10μΜ, 72 h) was 0.249%. For the same compound, the “cell viability (kinase inhibitor library screening)” value ([4]; 1μΜ, 72 h) was 11.5%, the “cell viability (kinase inhibitor library screening)” value ([4]; 10μΜ, 72 h) was 8.1% and the “cell viability (kinase inhibitor library screening)” value ([5]; 10μΜ, 72 h) was 10.7%. For the same compound, the “cell viability (kinase inhibitor library screening)” value ([5]; 1μΜ, 72 h) was 10.8%, the “cell viability (kinase inhibitor library screening)” value ([6]; 1μΜ, 72 h) was 10.0% and the “cell viability (kinase inhibitor library screening)” value ([6]; 10μΜ, 72 h) was 6.1%. The “cell viability (kinase inhibitor library screening)” value ([7]; 1μΜ, 72 h) was 1.5%, the “cell viability (kinase inhibitor library screening)” value ([7]; 10μΜ, 72 h) was 1.3% and the “cell viability (kinase inhibitor library screening)” value ([8]; 1μΜ, 72 h) was 4.4%. The “cell viability (kinase inhibitor library screening)” value ([8]; 10μΜ, 72 h) was 2.8%, the “cell viability (kinase inhibitor library screening)” value ([9]; 1μΜ, 72 h) was 3.1% and the “cell viability (kinase inhibitor library screening)” value ([9]; 10μΜ, 72 h) was 2.6%.
In the case of `CN1CCN(c2ccc3nc(-c4c(N)c5c(F)cccc5[nH]c4=O)[nH]c3c2)CC1` [Dovitinib (TKI-258)], the “cell viability, 501Mel GP, 1μΜ” value ([1]; 1μΜ, 72 h, in %) is reported as 95.0, the “cell viability, 501Mel GP, 10μΜ” value ([1]; 10μΜ, 72 h, in %) is reported as -0.1 and the cell viability, IGR37 GP, 10μΜ ([2]; 10μΜ, 72 h) is reported as 42.8%. The “cell viability, IGR37 GP, 1μΜ” value ([2]; 1μΜ, 72 h, in %) was 99.9, the “cell viability, 501Mel XP, 1μΜ” value ([3]; 1μΜ, 72 h, in %) was 87.1 and the “cell viability, 501Mel XP, 10μΜ” value ([3]; 10μΜ, 72 h, in %) was -0.0348. The “cell viability, A375 XP, 1μΜ” value ([4]; 1μΜ, 72 h, in %) was 97.7, the “cell viability, A375 XP, 10μΜ” value ([4]; 10μΜ, 72 h, in %) was 58.3 and the “cell viability, A375 Parental, 1μΜ” value ([5]; 1μΜ, 72 h, in %) was 102.8. The “cell viability, A375 Parental, 10μΜ” value ([5]; 10μΜ, 72 h, in %) was 47.2, the “cell viability, A375 GP, 1μΜ” value ([6]; 1μΜ, 72 h, in %) was 93.5 and the “cell viability, A375 GP, 10μΜ” value ([6]; 10μΜ, 72 h, in %) was 42.2. For the same compound, the “cell viability, 501Mel Parental, 1μΜ” value ([7]; 1μΜ, 72 h, in %) was 103.1, the “cell viability, 501Mel Parental, 10μΜ” value ([7]; 10μΜ, 72 h, in %) was 0.6 and the “cell viability, IGR37 Parental, 1μΜ” value ([8]; 1μΜ, 72 h, in %) was 96.1. The “cell viability, IGR37 Parental, 10μΜ” value ([8]; 10μΜ, 72 h, in %) was 64.0, the cell viability, IGR37 XP, 10μΜ ([9]; 10μΜ, 72 h) was 22.5% and the “cell viability, IGR37 XP, 1μΜ” value ([9]; 1μΜ, 72 h, in %) was 102.6.
`COc1cc2nccc(Oc3ccc(NC(=O)NC4CC4)c(Cl)c3)c2cc1C(N)=O` [E7080 (Lenvatinib)] was tested, and the “cell viability (kinase inhibitor library screening)” value ([1]; 1μΜ, in %) was 106.1, the “cell viability (kinase inhibitor library screening)” value ([1]; 10μΜ, in %) was 90.9 and the “cell viability (kinase inhibitor library screening)” value ([2]; 1μΜ, in %) was 97.5. For the same compound, the “cell viability (kinase inhibitor library screening)” value ([2]; 10μΜ, in %) was 86.5, the “cell viability (kinase inhibitor library screening)” value ([3]; 1μΜ, in %) was 98.9 and the “cell viability (kinase inhibitor library screening)” value ([3]; 10μΜ, in %) was 87.0. The “cell viability (kinase inhibitor library screening)” value ([4]; 10μΜ, in %) was 109.2, the “cell viability (kinase inhibitor library screening)” value ([5]; 1μΜ, in %) was 103.7 and the “cell viability (kinase inhibitor library screening)” value ([5]; 10μΜ, in %) was 95.8. The “cell viability (kinase inhibitor library screening)” value ([6]; 10μΜ, in %) was 94.8, the “cell viability (kinase inhibitor library screening)” value ([7]; 1μΜ, in %) was 106.1 and the “cell viability (kinase inhibitor library screening)” value ([7]; 10μΜ, in %) was 105.7. For the same compound, the “cell viability (kinase inhibitor library screening)” value ([8]; 1μΜ, in %) was 102.9, the “cell viability (kinase inhibitor library screening)” value ([8]; 10μΜ, in %) was 104.3 and the “cell viability (kinase inhibitor library screening)” value ([9]; 1μΜ, in %) was 97.7. For the same compound, the “cell viability (kinase inhibitor library screening)” value ([9]; 10μΜ, in %) was 58.8.
